For 40 compounds, IC50 results are on record in patent US8586739B2, “Heterocyclic compounds and their uses” (Amgen Inc., priority 2007, dated 2013).

pIC50: −log10 of the molar value.

The test system of one assay is human B cells. The experiment in a line: Human B cells proliferation stimulated by anti-IgM (3H thymidine). The class given is cell-based. Particulars: Homo sapiens, B-cell, 72 h, purified human B cells, anti-Human IgM + CD40L-LZ. On the procedure:
Human B Cells Proliferation stimulate by anti-IgM
Isolate PBMCs from Leukopac or from human fresh blood. Isolate human B cells by using Miltenyi protocol and B cell isolation kit II.—human B cells were Purified by using autoMACS® column.
Activation of Human B Cells
Use 96 well Flat bottom plate, plate 50000/well purified B cells in B cell proffer-ation medium (DMEM+5% FCS, 10 mM Hepes, 50 μM 2-mercaptoethanol); 150 μL medium contain 250 ng/mL CD40L-LZ recombinant protein (Amgen) and 2 μg/mL anti-Human IgM antibody (Jackson ImmunoReseach Lab.#109-006-129), mixed with 50 μL B cell medium containing PI3K inhibitors and incubate 72 h at 37° C. incubator. After 72 h, pulse labeling B cells with 0.5-1 uCi/well ^3H thymidine for overnight ˜18 h, and harvest cell using TOM harvester.
Turning to `C[C@H](Nc1ncnc2[nH]cnc12)c1cc2cccc(Cl)c2nc1Oc1ccccc1` [N-((1S)-1-(8-chloro-2-phenoxy-3-quinolinyl)ethyl)-9H-purin-6-amine], the pIC50 was 7.53. Turning to `C[C@H](Nc1ncnc2nc[nH]c12)c1cc2cccc(F)c2nc1-c1cccnc1` [N-((1S)-1-(8-fluoro-2-(3-pyridinyl)-3-quinolinyl)ethyl)-7H-purin-6-amine], the pIC50 is 7.81. As for `CC(C)c1ccncc1-c1nc2c(Cl)cccc2cc1CNc1ncnc2[nH]cnc12` [N-((8-chloro-2-(4-(1-methylethyl)-3-pyridinyl)-3-quinolinyl)methyl)-9H-purin-6-amine], the pIC50 was 7.59.

For the compound `C[C@H](Nc1ncnc2[nH]cnc12)c1cc2ccc(F)cc2nc1-c1ccccc1Cl` [N-((1S)-1-(2-(2-chlorophenyl)-7-fluoro-3-quinolinyl)ethyl)-9H-purin-6-amine], the pIC50 is 7.54. For the compound `C[C@H](Nc1ncnc2nc[nH]c12)c1cc2cccc(F)c2nc1-c1ccccc1Cl` [N-((1S)-1-(2-(2-chlorophenyl)-8-fluoro-3-quinolinyl)ethyl)-7H-purin-6-amine], the pIC50 is 7.94. Still for that read-out and setting: the figure for `Fc1ccc2cc(CNc3ncnc4[nH]cnc34)c(-c3ccccc3Cl)nc2c1` [N-((2-(2-chlorophenyl)-7-fluoro-3-quinolinyl)methyl)-9H-purin-6-amine] is 7.05; for `Clc1cccc2cc(CNc3ncnc4[nH]cnc34)c(-c3cccs3)nc12` [N-((8-chloro-2-(2-thiophenyl)-3-quinolinyl)methyl)-9H-purin-6-amine] it is 6.98. Same read-out and setting: with `C[C@H](Nc1ncnc2[nH]cnc12)c1cc2ccc(F)cc2nc1-c1ccccc1S(C)(=O)=O` [N-((1S)-1-(7-fluoro-2-(2-(methylsulfonyl)phenyl)-3-quinolinyl)ethyl)-9H-purin-6-amine] the figure was 8.17.

For the compound `C[C@H](Nc1ncnc2[nH]cnc12)c1cc2ccc(F)cc2nc1-c1cccc(S(C)(=O)=O)c1` [N-((1S)-1-(7-fluoro-2-(3-(methylsulfonyl)phenyl)-3-quinolinyl)ethyl)-9H-purin-6-amine], the pIC50 is 6.83. `C[C@H](Nc1ncnc2[nH]cnc12)c1cc2cccc(Cl)c2nc1-c1ccc(F)cc1F` [N-((1S)-1-(8-chloro-2-(2,4-difluorophenyl)-3-quinolinyl)ethyl)-9H-purin-6-amine]: the pIC50 is 7.85. `N#Cc1ccccc1-c1nc2c(Cl)cccc2cc1CNc1ncnc2[nH]cnc12` [2-(8-chloro-3-((9H-purin-6-ylamino)methyl)-2-quinolinyl)benzonitrile]: the pIC50 was 7.26.

For the compound `C[C@H](Nc1ncnc2[nH]cnc12)c1cc2cccc(Cl)c2nc1-c1cncc(F)c1` [N-((1S)-1-(8-chloro-2-(5-fluoro-3-pyridinyl)-3-quinolinyl)ethyl)-9H-purin-6-amine], the pIC50 was 8.45. In the case of `C[C@H](Nc1ncnc2[nH]cnc12)c1cc2c(Cl)cccc2nc1-c1cccc(F)c1` [N-((S)-1-(5-Chloro-2-(3-fluorophenyl)quinolin-3-yl)ethyl)-9H-purin-6-amine], the pIC50 was 7.85. Regarding `C[C@H](Oc1ncnc2[nH]ccc12)c1cc2cccc(Cl)c2nc1-c1ccccc1` [8-chloro-2-phenyl-3-((1S)-1-(7H-pyrrolo[2,3-d]pyrimidin-4-yloxy)ethyl)quinoline], the pIC50 is 8.52. As to `C[C@H](Nc1ncnc2[nH]cnc12)c1cc2ccccc2nc1-c1ccccn1` [N-((1S)-1-(2-(2-pyridinyl)-3-quinolinyl)ethyl)-9H-purin-6-amine], the pIC50 is 8.25. For the compound `C[C@H](Nc1ncnc2[nH]cnc12)c1cc2cccc(Cl)c2nc1-c1nccs1` [N-((1S)-1-(8-chloro-2-(1,3-thiazol-2-yl)-3-quinolinyl)ethyl)-9H-purin-6-amine], the pIC50 is 8.79.

As to `C[C@@H](Nc1ncnc2[nH]cnc12)c1cc2cccc(Cl)c2nc1-c1nccs1` [N-((1R)-1-(8-chloro-2-(1,3-thiazol-2-yl)-3-quinolinyl)ethyl)-9H-purin-6-amine], the pIC50 is 6.74. For the compound `C[C@H](Nc1ncnc2[nH]cnc12)c1nc2cccc(Cl)c2cc1-c1cccc(F)c1` [N-((1S)-1-(5-chloro-3-(3-fluorophenyl)-2-quinolinyl)ethyl)-9H-purin-6-amine], the pIC50 was 8.06. Same read-out and setting: the figure for `C[C@H](Nc1ncnc2[nH]cnc12)c1cc2cccc(Cl)c2nc1-c1cccc(S(C)(=O)=O)c1` [N-((1S)-1-(8-chloro-2-(3-(methylsulfonyl)phenyl)-3-quinolinyl)ethyl)-9H-purin-6-amine] is 7.25.

Take `C[C@H](Nc1ncnc2nc[nH]c12)c1cc2cccc(F)c2nc1-c1cc(F)ccc1Cl` [N-((1S)-1-(2-(2-chloro-5-fluorophenyl)-8-fluoro-3-quinolinyl)ethyl)-7H-purin-6-amine]: the pIC50 was 7.47. Turning to `C[C@H](Nc1ncnc2[nH]cnc12)c1cc2cccc(Cl)c2nc1-c1ccccc1` [N-((1S)-1-(8-chloro-2-phenyl-3-quinolinyl)ethyl)-9H-purin-6-amine], the pIC50 was 8.58.

For `Fc1cccc(-c2nc3c(Br)cccc3cc2CNc2ncnc3[nH]cnc23)c1` [N-((8-Bromo-2-(3-fluorophenyl)quinolin-3-yl)methyl)-9H-purin-6-amine], the pIC50 is 7.16.

`CC(C)c1ncccc1-c1nc2c(Cl)cccc2cc1CNc1ncnc2[nH]cnc12` [N-((8-chloro-2-(2-(1-methylethyl)-3-pyridinyl)-3-quinolinyl)methyl)-9H-purin-6-amine]: the pIC50 is 7.51. On the same count and under the same terms, the figure for `Cc1cccc(-c2nc3c(Cl)cccc3cc2[C@H](C)Nc2ncnc3[nH]cnc23)n1` [N-((1S)-1-(8-chloro-2-(6-methyl-2-pyridinyl)-3-quinolinyl)ethyl)-9H-purin-6-amine] is 6.98; for `C[C@H](Nc1ncnc2nc[nH]c12)c1cc2cccc(F)c2nc1-c1cc(F)ccc1F` [N-((1S)-1-(2-(2,5-difluorophenyl)-8-fluoro-3-quinolinyl)ethyl)-7H-purin-6-amine] it is 7.90; for `Cc1cc(C)n(-c2nc3c(Cl)cccc3cc2[C@H](C)Nc2ncnc3[nH]cnc23)n1` [N-((1S)-1-(8-chloro-2-(3,5-dimethyl-1H-pyrazol-1-yl)-3-quinolinyl)ethyl)-9H-purin-6-amine] it is 8.58. Turning to `C[C@H](Nc1ncnc2[nH]cnc12)c1cc2ccc(F)cc2nc1-c1cccc(F)c1` [N-((1S)-1-(7-fluoro-2-(3-fluorophenyl)-3-quinolinyl)ethyl)-9H-purin-6-amine], the pIC50 was 7.94.

Regarding `N#Cc1cccc2cc(CNc3ncnc4[nH]cnc34)c(-c3cccc(F)c3)nc12` [2-(3-fluorophenyl)-3-((9H-purin-6-ylamino)methyl)-8-quinolinecarbonitrile], the pIC50 was 6.52.

With `C[C@H](Nc1ncnc2[nH]cnc12)c1cc2cccc(-c3ccccn3)c2nc1-c1ccccn1` [N-((1S)-1-(2,8-di-2-pyridinyl-3-quinolinyl)ethyl)-9H-purin-6-amine], the pIC50 was 7.17.

For the compound `C[C@H](Nc1ncnc2[nH]cnc12)c1nc2cccc(C(F)(F)F)c2nc1-c1ccccc1Cl` [N-((1S)-1-(3-(2-chlorophenyl)-5-(trifluoromethyl)-2-quinoxalinyl)ethyl)-9H-purin-6-amine], the pIC50 was 7.98.

In the case of `Clc1cccc2cc(CNc3ncnc4[nH]cnc34)c(-c3nccs3)nc12` [N-((8-chloro-2-(1,3-thiazol-2-yl)-3-quinolinyl)methyl)-9H-purin-6-amine], the pIC50 is 6.68. As for `C[C@H](Nc1ncnc2[nH]cnc12)c1cc2ccc(F)cc2nc1-c1ccccc1` [N-((1S)-1-(7-fluoro-2-phenyl-3-quinolinyl)ethyl)-9H-purin-6-amine], the pIC50 was 8.29.

As to `C[C@H](Nc1ncnc2[nH]cnc12)c1cc2cccc(Cl)c2nc1-c1cc(F)ccc1Cl` [N-((1S)-1-(8-chloro-2-(2-chloro-5-fluorophenyl)-3-quinolinyl)ethyl)-9H-purin-6-amine], the pIC50 is 7.33. Still for that read-out and setting: with `Clc1cccc2cc(CNc3ncnc4[nH]cnc34)c(-c3cn[nH]c3)nc12` [N-((8-chloro-2-(1H-pyrazol-4-yl)-3-quinolinyl)methyl)-9H-purin-6-amine] the figure was 6.80; with `C[C@H](Nc1ncnc2[nH]cnc12)c1cc2ccc(F)cc2[n+]([O-])c1-c1ccccc1` [N-((1S)-1-(7-fluoro-1-oxido-2-phenyl-3-quinolinyl)ethyl)-9H-purin-6-amine], 8.33. As to `C[C@H](Nc1ncnc2[nH]cnc12)c1cc2cccc(Cl)c2nc1-c1cccc(F)c1F` [N-((S)-1-(8-Chloro-2-(2,3-difluorophenyl)quinolin-3-yl)ethyl)-9H-purin-6-amine], the pIC50 was 8.12. As to `Cc1ncccc1-c1nc2c(Cl)cccc2cc1[C@H](C)Nc1ncnc2[nH]cnc12` [N-((1S)-1-(8-chloro-2-(2-methyl-3-pyridinyl)-3-quinolinyl)ethyl)-9H-purin-6-amine], the pIC50 is 8.36. Still for that read-out and setting: the figure for `Fc1ccc(-c2nc3c(Cl)cccc3cc2CNc2ncnc3nc[nH]c23)cc1` [N-((8-chloro-2-(4-fluorophenyl)-3-quinolinyl)methyl)-7H-purin-6-amine] is 6.58. As for `C[C@H](Nc1ncnc2[nH]cnc12)c1cc2cccc(Cl)c2nc1-c1ccc(F)cc1` [N-((1S)-1-(8-chloro-2-(4-fluorophenyl)-3-quinolinyl)ethyl)-9H-purin-6-amine], the pIC50 was 7.98. Still for that read-out and setting: the figure for `Clc1cccc2cc(CNc3ncnc4[nH]cnc34)c(Oc3ccccc3)nc12` [N-((8-chloro-2-phenoxy-3-quinolinyl)methyl)-9H-purin-6-amine] is 7.58.

Still in this assay, the particulars now being: Homo sapiens, B-cell, purified human B cells, anti-Human IgM + CD40L-LZ, 72 h.
Turning to `C[C@H](Nc1ncnc2[nH]cnc12)c1cc2ccc(F)cc2nc1-c1ccccc1Cl` [N-((1S)-1-(2-(2-chlorophenyl)-7-fluoro-3-quinolinyl)ethyl)-9H-purin-6-amine], the pIC50 was 7.54.
